In ChEMBL document CHEMBL3046029, “Green approach towards the facile synthesis of dihydropyrano(c)chromene and pyrano[2,3-d]pyrimidine derivatives and their biological evaluation” (2013):
The source made the active and inactive calls. The rule behind the calls is not given here.

Columns and labels:
[1] = tested on: OVCAR-3; assay: Anticancer activity against Homo sapiens (human) OVCAR3 cells at 0.1 to 100 uM by SRB assay; format: functional, cell-based
[2] = tested on: Citrobacter freundii; assay: Antibacterial activity against Citrobacter freundii ATCC 8090 = MTCC 1658 assessed as diameter of growth inhibition zone at 20 mg/ml after 24 hr by disk diffusion method; format: functional; conditions: ATCC 8090 = MTCC 1658, 24 h, read-out: DIZ
[3] = tested on: Escherichia coli; assay: Antibacterial activity against Escherichia coli ATCC 25922 assessed as diameter of growth inhibition zone at 20 mg/ml after 24 hr by disk diffusion method; format: functional; conditions: ATCC 25922, 24 h, read-out: DIZ
[4] = tested on: Salmonella typhi; assay: Antibacterial activity against Salmonella enterica subsp. enterica serovar Typhi ATCC 19430 assessed as diameter of growth inhibition zone at 20 mg/ml after 24 hr by disk diffusion method; format: functional; conditions: ATCC 19430, 24 h, read-out: DIZ
[5] = tested on: Salmonella typhi; assay: Antibacterial activity against Salmonella enterica subsp. enterica serovar Typhi ATCC 19430 assessed as growth inhibition after 24 hr by disk diffusion method; format: functional
[6] = tested on: Priestia megaterium; assay: Antibacterial activity against Bacillus megaterium ATCC 12872 assessed as diameter of growth inhibition zone at 20 mg/ml after 24 hr by disk diffusion method; format: functional; conditions: ATCC 12872, 24 h, read-out: DIZ
[7] = tested on: Klebsiella pneumoniae; assay: Antibacterial activity against Klebsiella pneumoniae ATCC 15380 assessed as diameter of growth inhibition zone at 20 mg/ml after 24 hr by disk diffusion method; format: functional; conditions: ATCC 15380, 24 h, read-out: DIZ
[8] = tested on: MDA-MB-435; assay: Anticancer activity against Homo sapiens (human) MDA-MB-435 cells at 0.1 to 100 uM by SRB assay; format: functional, cell-based
[9] = tested on: PC-3; assay: Anticancer activity against Homo sapiens (human) PC3 cells at 0.1 to 100 uM by SRB assay; format: functional, cell-based
[10] = tested on: Pseudomonas aeruginosa; assay: Antibacterial activity against Pseudomonas aeruginosa ATCC 27853 assessed as diameter of growth inhibition zone at 20 mg/ml after 24 hr by disk diffusion method; format: functional; conditions: ATCC 27853, 24 h, read-out: DIZ

CC1(C)CC(=O)C2=C(C1)OC(N)=C(C#N)C2c1ccco1 (stereo not drawn)
Activity [1]: inactive | zone of inhibition at 20000 µg/mL [2]: 10 mm | zone of inhibition at 20000 µg/mL [3]: 16 mm | zone of inhibition at 20000 µg/mL [4]: 15 mm | MIC [5]: 10 µg | zone of inhibition at 20000 µg/mL [6]: 12 mm | zone of inhibition at 20000 µg/mL [7]: 15 mm | Activity [8]: inactive | Activity [9]: inactive | zone of inhibition at 20000 µg/mL [10]: 14 mm

Cc1ccc(C2C(C#N)=C(N)OC3=C2C(=O)CC(C)(C)C3)s1 (stereo not drawn)
zone of inhibition at 20000 µg/mL [2]: 10 mm | zone of inhibition at 20000 µg/mL [3]: 22 mm | zone of inhibition at 20000 µg/mL [4]: 19 mm | MIC [5]: 10 µg | zone of inhibition at 20000 µg/mL [6]: 10 mm | zone of inhibition at 20000 µg/mL [7]: 21 mm | zone of inhibition at 20000 µg/mL [10]: 22 mm

Cc1ccc(C2C(C#N)=C(N)Oc3[nH]c(=O)[nH]c(=O)c32)o1 (stereo not drawn)
zone of inhibition at 20000 µg/mL [2]: 10 mm | zone of inhibition at 20000 µg/mL [3]: 12 mm | zone of inhibition at 20000 µg/mL [4]: 18 mm | MIC [5]: 10 µg | zone of inhibition at 20000 µg/mL [6]: 14 mm | zone of inhibition at 20000 µg/mL [7]: 17 mm | zone of inhibition at 20000 µg/mL [10]: 15 mm

CC1(C)CC(=O)C2=C(C1)OC(N)=C(C#N)C2c1cccs1 (stereo not drawn)
zone of inhibition at 20000 µg/mL [2]: 10 mm | zone of inhibition at 20000 µg/mL [3]: 20 mm | zone of inhibition at 20000 µg/mL [4]: 22 mm | MIC [5]: 10 µg | zone of inhibition at 20000 µg/mL [6]: 10 mm | zone of inhibition at 20000 µg/mL [7]: 19 mm | zone of inhibition at 20000 µg/mL [10]: 20 mm

N#CC1=C(N)Oc2[nH]c(=O)[nH]c(=O)c2C1c1cccs1 (stereo not drawn)
zone of inhibition at 20000 µg/mL [2]: 12 mm | zone of inhibition at 20000 µg/mL [3]: 15 mm | zone of inhibition at 20000 µg/mL [4]: 22 mm | MIC [5]: 10 µg | zone of inhibition at 20000 µg/mL [6]: 12 mm | zone of inhibition at 20000 µg/mL [7]: 20 mm | zone of inhibition at 20000 µg/mL [10]: 18 mm

CC1(C)CC(=O)C2=C(C1)OC(N)=C(C#N)C2c1ccc[nH]1 (stereo not drawn)
zone of inhibition at 20000 µg/mL [2]: 10 mm | zone of inhibition at 20000 µg/mL [3]: 20 mm | zone of inhibition at 20000 µg/mL [4]: 22 mm | MIC [5]: 10 µg | zone of inhibition at 20000 µg/mL [6]: 12 mm | zone of inhibition at 20000 µg/mL [7]: 19 mm | zone of inhibition at 20000 µg/mL [10]: 20 mm

N#CC1=C(N)Oc2[nH]c(=O)[nH]c(=O)c2C1c1ccco1 (stereo not drawn)
Activity [1]: inactive | zone of inhibition at 20000 µg/mL [2]: 10 mm | zone of inhibition at 20000 µg/mL [3]: 12 mm | zone of inhibition at 20000 µg/mL [4]: 18 mm | MIC [5]: 10 µg | zone of inhibition at 20000 µg/mL [6]: 14 mm | zone of inhibition at 20000 µg/mL [7]: 16 mm | Activity [8]: inactive | Activity [9]: inactive | zone of inhibition at 20000 µg/mL [10]: 14 mm

COc1cccc2c1C(=O)c1c(O)c3c(c(O)c1C2=O)C[C@@](O)(C(=O)CO)C[C@@H]3O[C@H]1C[C@H](N)[C@H](O)[C@H](C)O1
Activity [1]: Active | Activity [8]: Active | Activity [9]: Active

Cc1ccc(C2C(C#N)=C(N)Oc3[nH]c(=O)[nH]c(=O)c32)s1 (stereo not drawn)
zone of inhibition at 20000 µg/mL [2]: 12 mm | zone of inhibition at 20000 µg/mL [3]: 16 mm | zone of inhibition at 20000 µg/mL [4]: 20 mm | MIC [5]: 10 µg | zone of inhibition at 20000 µg/mL [6]: 10 mm | zone of inhibition at 20000 µg/mL [7]: 22 mm | zone of inhibition at 20000 µg/mL [10]: 22 mm

Cc1ccsc1C1C(C#N)=C(N)OC2=C1C(=O)CC(C)(C)C2 (stereo not drawn)
zone of inhibition at 20000 µg/mL [2]: 10 mm | zone of inhibition at 20000 µg/mL [3]: 21 mm | zone of inhibition at 20000 µg/mL [4]: 19 mm | MIC [5]: 10 µg | zone of inhibition at 20000 µg/mL [6]: 12 mm | zone of inhibition at 20000 µg/mL [7]: 20 mm | zone of inhibition at 20000 µg/mL [10]: 22 mm

Cc1ccsc1C1C(C#N)=C(N)Oc2[nH]c(=O)[nH]c(=O)c21 (stereo not drawn)
zone of inhibition at 20000 µg/mL [2]: 12 mm | zone of inhibition at 20000 µg/mL [3]: 16 mm | zone of inhibition at 20000 µg/mL [4]: 21 mm | MIC [5]: 10 µg | zone of inhibition at 20000 µg/mL [6]: 10 mm | zone of inhibition at 20000 µg/mL [7]: 22 mm | zone of inhibition at 20000 µg/mL [10]: 20 mm

Cc1ccc(C2C(C#N)=C(N)OC3=C2C(=O)CC(C)(C)C3)o1 (stereo not drawn)
zone of inhibition at 20000 µg/mL [2]: 10 mm | zone of inhibition at 20000 µg/mL [3]: 17 mm | zone of inhibition at 20000 µg/mL [4]: 16 mm | MIC [5]: 10 µg | zone of inhibition at 20000 µg/mL [6]: 12 mm | zone of inhibition at 20000 µg/mL [7]: 15 mm | zone of inhibition at 20000 µg/mL [10]: 15 mm

N#CC1=C(N)Oc2[nH]c(=O)[nH]c(=O)c2C1c1ccc[nH]1 (stereo not drawn)
zone of inhibition at 20000 µg/mL [2]: 12 mm | zone of inhibition at 20000 µg/mL [3]: 14 mm | zone of inhibition at 20000 µg/mL [4]: 22 mm | MIC [5]: 10 µg | zone of inhibition at 20000 µg/mL [6]: 12 mm | zone of inhibition at 20000 µg/mL [7]: 20 mm | zone of inhibition at 20000 µg/mL [10]: 18 mm
